Data as given in patent US7956074B2, “Aryl-isoxazolo-4-yl-oxadiazole derivatives” (Hoffman-La Roche Inc., priority 2005, dated 2011).

Target: T1, GABA A receptor α5β3γ2 (Homo sapiens, UniProt P18507+P31644)
T1 construct: expressed in transfected cells; host or cells: HEK293 cells, transiently transfected; membranes prepared
Assay: [3H]flumazenil competition binding, human GABA A α5β3γ2
Details: competition for [3H]flumazenil (0.5 nM) binding, HEK293 cells expressing human (transiently transfected) α5β3γ2; means of two determinations; read-out: Ki[nM] hα5
Method: Membrane Preparation and Binding Assay
The affinity of compounds at GABA A receptor subtypes was measured by competition for [3H]flumazenil (85 Ci/mmol; Roche) binding to HEK293 cells expressing rat (stably transfected) or human (transiently transfected) receptors of composition
Cell pellets were suspended in Krebs-tris buffer (4.8 mM KCl, 1.2 mM CaCl2, 1.2 mM MgCl2, 120 mM NaCl, 15 mM Tris; pH 7.5; binding assay buffer), homogenized by polytron for ca. 20 sec on ice and centrifuged for 60 min at 4° C. (50000 g; Sorvall, rotor: SM24=20000 rpm). The cell pellets were resuspended in Krebs-tris buffer and homogenized by polytron for ca. 15 sec on ice. Protein was measured (Bradford method, Bio-Rad) and aliquots of 1 mL were prepared and stored at −80° C.
Assays were incubated to equilibrium for 1 hour at 4° C. and harvested onto GF/C uni-filters (Packard) by filtration using a Packard harvester and washing with ice-cold wash buffer (50 mM Tris; pH 7.5). After drying, filter-retained radioactivity was detected by liquid scintillation counting. Ki values were calculated using Excel-Fit (Microsoft) and are the means of two determinations.

Row | SMILES | Ki [nM]
1 | Cc1onc(-c2ccccc2)c1-c1nnc(-c2cccc(S(C)(=O)=O)c2)o1 [Example 31, 2-(3-Methanesulfonyl-phenyl)-5-(5-methyl-3-phenyl-isoxazol-4-yl)-[1,3,4]oxadiazole] | 199
2 | Cc1onc(-c2ccccc2)c1-c1nnc(-c2ccccn2)o1 [Example 9, 2-[5-(5-Methyl-3-phenyl-isoxazol-4-yl)-[1,3,4]oxadiazol-2-yl]-pyridine] | 286
3 | COc1cc(NCCN2CCNC2=O)c(F)cc1-c1nnc(-c2c(-c3ccccc3)noc2C)o1 [Example 133, 1-(2-{2-Fluoro-5-methoxy-4-[5-(5-methyl-3-phenyl-isoxazol-4-yl)-[1,3,4]oxadiazol-2-yl]-phenylamino}-ethyl)-imidazolidin-2-one] | 12.8
4 | Cc1onc(-c2ccccc2)c1-c1nnc(-c2ccc(N3CCC(O)CC3)nc2)o1 [Example 140, 5′-[5-(5-Methyl-3-phenyl-isoxazol-4-yl)-[1,3,4]oxadiazol-2-yl]-3,4,5,6-tetrahydro-2H-[1,2′]bipyridinyl-4-ol] | 23.5
5 | COc1cc(NCC2CC2)ccc1-c1nnc(-c2c(-c3ccccc3)noc2CCC2CC2)o1 [Example 18, (4-{5-[5-(2-Cyclopropyl-ethyl)-3-phenyl-isoxazol-4-yl]-[1,3,4]oxadiazol-2-yl}-3-methoxy-phenyl)-cyclopropylmethyl-amine] | 124
6 | COc1cc(N(C)C)ccc1-c1nnc(-c2c(-c3ccccc3)noc2C)o1 [Example 72, {3-Methoxy-4-[5-(5-methyl-3-phenyl-isoxazol-4-yl)-[1,3,4]oxadiazol-2-yl]-phenyl}-dimethyl-amine] | 12
7 | COc1cc(-n2ccnc2)ccc1-c1nnc(-c2c(-c3ccccc3)noc2C)o1 [Example 33, 2-(4-Imidazol-1-yl-2-methoxy-phenyl)-5-(5-methyl-3-phenyl-isoxazol-4-yl)-[1,3,4]oxadiazole] | 7.5
8 | COc1cc(NC2CCOCC2)ccc1-c1nnc(-c2c(-c3ccccc3)noc2C)o1 [Example 64, {3-Methoxy-4-[5-(5-methyl-3-phenyl-isoxazol-4-yl)-[1,3,4]oxadiazol-2-yl]-phenyl}-(tetrahydro-pyran-4-yl)-amine] | 4.2
9 | Cc1onc(-c2ccccc2)c1-c1nnc(-c2ccc(N3CCSCC3)cc2)o1 [Example 37, 4-{4-[5-(5-Methyl-3-phenyl-isoxazol-4-yl)-[1,3,4]oxadiazol-2-yl]-phenyl}-thiomorpholine] | 22.9
10 | COc1cc(NC(=O)C2CC2)ccc1-c1nnc(-c2c(-c3ccccc3)noc2C)o1 [Example 16, Cyclopropanecarboxylic acid {3-methoxy-4-[5-(5-methyl-3-phenyl-isoxazol-4-yl)-[1,3,4]oxadiazol-2-yl]-phenyl}-amide] | 7.7
11 | COc1cc(N2CCS(=O)(=O)CC2)c(F)cc1-c1nnc(-c2c(-c3ccccc3)noc2C)o1 [Example 117, 4-{2-Fluoro-5-methoxy-4-[5-(5-methyl-3-phenyl-isoxazol-4-yl)-[1,3,4]oxadiazol-2-yl]-phenyl}-thiomorpholine 1,1-dioxide] | 2
12 | CCc1onc(-c2ccccc2)c1-c1nnc(-c2ccc(F)cc2OC)o1 [Example 60, 2-(5-Ethyl-3-phenyl-isoxazol-4-yl)-5-(4-fluoro-2-methoxy-phenyl)-[1,3,4]oxadiazole] | 96
13 | Cc1onc(-c2ccccc2)c1-c1nnc(-c2ccc(NC3CCOCC3)nc2)o1 [Example 139, {5-[5-(5-Methyl-3-phenyl-isoxazol-4-yl)-[1,3,4]oxadiazol-2-yl]-pyridin-2-yl}-(tetrahydro-pyran-4-yl)-amine] | 16.4
14 | COc1cc(N2CCOCC2)ccc1-c1nnc(-c2c(-c3ccccc3Cl)noc2C)o1 [Example 97, 4-(4-{5-[3-(2-Chloro-phenyl)-5-methyl-isoxazol-4-yl]-[1,3,4]oxadiazol-2-yl}-3-methoxy-phenyl)-morpholine] | 105
15 | COc1cc(N2CCOCC2)ccc1-c1nnc(-c2c(-c3ccccc3)noc2C)o1 [Example 68, 4-{3-Methoxy-4-[5-(5-methyl-3-phenyl-isoxazol-4-yl)-[1,3,4]oxadiazol-2-yl]-phenyl}-morpholine] | 4.2
16 | Cc1onc(-c2ccccc2)c1-c1nnc(-c2ccc(N3CCC(F)(F)CC3)cc2)o1 [Example 112, 4,4-Difluoro-1-{4-[5-(5-methyl-3-phenyl-isoxazol-4-yl)-[1,3,4]oxadiazol-2-yl]-phenyl}-piperidine] | 31.2
17 | Cc1onc(-c2ccccc2)c1-c1nnc(-c2ccc([N+](=O)[O-])cc2)o1 [Example 32, 5-(5-Methyl-3-phenyl-isoxazol-4-yl)-2-(4-nitro-phenyl)-[1,3,4]oxadiazole] | 240
18 | Cc1onc(-c2ccccc2)c1-c1nnc(C2CCCCC2)o1 [Example 70, 2-Cyclohexyl-5-(5-methyl-3-phenyl-isoxazol-4-yl)-[1,3,4]oxadiazole] | 262
19 | COc1cc([N+](=O)[O-])ccc1-c1nnc(-c2c(-c3ccccc3)noc2C)o1 [Example 11, 2-(2-Methoxy-4-nitro-phenyl)-5-(5-methyl-3-phenyl-isoxazol-4-yl)-[1,3,4]oxadiazole] | 171
20 | COc1ccc(OC)c(-c2nnc(-c3c(-c4ccccc4)noc3C)o2)c1 [Example 15, 2-(2,5-Dimethoxy-phenyl)-5-(5-methyl-3-phenyl-isoxazol-4-yl)-[1,3,4]oxadiazole] | 14.8
21 | COc1cc(N(S(C)(=O)=O)S(C)(=O)=O)ccc1-c1nnc(-c2c(-c3ccccc3)noc2C)o1 [Example 21, N-{3-Methoxy-4-[5-(5-methyl-3-phenyl-isoxazol-4-yl)-[1,3,4]oxadiazol-2-yl]-phenyl}-bis-methanesulfonyl-amine] | 85
22 | COc1cc(N2CCOCC2)ccc1-c1nnc(-c2c(-c3ccc(Cl)cc3)noc2C)o1 [Example 109, 4-(4-{5-[3-(4-Chloro-phenyl)-5-methyl-isoxazol-4-yl]-[1,3,4]oxadiazol-2-yl}-3-methoxy-phenyl)-morpholine] | 2.2
23 | COc1cccc(-c2nnc(-c3c(-c4ccccc4)noc3C)o2)c1 [Example 3, 2-(3-Methoxy-phenyl)-5-(5-methyl-3-phenyl-isoxazol-4-yl)-[1,3,4]oxadiazole] | 391
24 | COc1cc(-n2ccnc2C)ccc1-c1nnc(-c2c(-c3ccccc3)noc2C)o1 [Example 58, 2-[2-Methoxy-4-(2-methyl-imidazol-1-yl)-phenyl]-5-(5-methyl-3-phenyl-isoxazol-4-yl)-[1,3,4]oxadiazole] | 13.9

Continued by falling Ki, values first:

Row | Ki [nM] | SMILES
25 | 469 | Cc1onc(-c2ccccc2)c1-c1nnc(-c2ccc(C(=O)N3CCOCC3)cc2)o1 [Example 80, {4-[5-(5-Methyl-3-phenyl-isoxazol-4-yl)-[1,3,4]oxadiazol-2-yl]-phenyl}-morpholin-4-yl-methanone]
26 | 293 | COc1cc(F)ccc1-c1nnc(-c2c(-c3ccccc3)noc2CO)o1 [Example 92, {4-[5-(4-Fluoro-2-methoxy-phenyl)-[1,3,4]oxadiazol-2-yl]-3-phenyl-isoxazol-5-yl}-methanol]
27 | 84.2 | Cc1onc(-c2ccccc2)c1-c1nnc(-c2ccc(C#N)cc2)o1 [Example 57, 4-[5-(5-Methyl-3-phenyl-isoxazol-4-yl)-[1,3,4]oxadiazol-2-yl]-benzonitrile]
28 | 46.9 | Cc1onc(-c2ccccc2)c1-c1nnc(-c2ccc(N3CCCCC3)cc2)o1 [Example 47, 1-{4-[5-(5-Methyl-3-phenyl-isoxazol-4-yl)-[1,3,4]oxadiazol-2-yl]-phenyl}-piperidine]
29 | 42.8 | COc1cc(NS(=O)(=O)C(C)C)ccc1-c1nnc(-c2c(-c3ccccc3)noc2C)o1 [Example 63, Propane-2-sulfonic acid {3-methoxy-4-[5-(5-methyl-3-phenyl-isoxazol-4-yl)-[1,3,4]oxadiazol-2-yl]-phenyl}-amide]
30 | 30.9 | Cc1onc(-c2ccccc2)c1-c1nnc(-c2ccc3nn[nH]c3c2)o1 [Example 25, 6-[5-(5-Methyl-3-phenyl-isoxazol-4-yl)-[1,3,4]oxadiazol-2-yl]-1H-benzotriazole]
31 | 24 | COc1ccc(-c2nnc(-c3c(-c4ccccc4)noc3C)o2)c(OC)n1 [Example 100, 2,6-Dimethoxy-3-[5-(5-methyl-3-phenyl-isoxazol-4-yl)-[1,3,4]oxadiazol-2-yl]-pyridine]
32 | 19.3 | COc1cc(N2CCOCC2)ccc1-c1nnc(-c2c(-c3cccc(Cl)c3)noc2C)o1 [Example 94, 4-(4-{5-[3-(3-Chloro-phenyl)-5-methyl-isoxazol-4-yl]-[1,3,4]oxadiazol-2-yl}-3-methoxy-phenyl)-morpholine]
33 | 15.3 | COc1cc(NC2CCN(C)CC2)ccc1-c1nnc(-c2c(-c3ccccc3)noc2C)o1 [Example 65, {3-Methoxy-4-[5-(5-methyl-3-phenyl-isoxazol-4-yl)-[1,3,4]oxadiazol-2-yl]-phenyl}-(1-methyl-piperidin-4-yl)-amine]
34 | 11.9 | COc1cc(F)ccc1-c1nnc(-c2c(-c3ccccc3)noc2C2CC2)o1 [Example 73, 2-(5-Cyclopropyl-3-phenyl-isoxazol-4-yl)-5-(4-fluoro-2-methoxy-phenyl)-[1,3,4]oxadiazole]
35 | 2.1 | COc1cc(N2CCOCC2)ccc1-c1nnc(-c2c(-c3ccccc3)noc2C2CC2)o1 [Example 77, 4-{4-[5-(5-Cyclopropyl-3-phenyl-isoxazol-4-yl)-[1,3,4]oxadiazol-2-yl]-3-methoxy-phenyl}-morpholine]
